{
  "source": "paper PMC8187380",
  "about": "“Lipophilic nanocrystal prodrug-release defines the extended pharmacokinetic profiles of a year-long cabotegravir” (Nature Communications, 2021)",
  "key": {"[1]": {"assay": "Plasma/blood PK after single IM injection in male Balb/cJ mice (UNMC)", "assay_type": "in vivo", "description": "In mice, inguinal, axillary, branchial, and cervical lymph nodes were collected and pooled, while in rats only cervical lymph nodes were collected. Following injection, blood samples were collected at 4 h, days 1, 2, 4, 7, 14, 28, 42, and 56 and then monthly for 12 months into EDTA tubes (blood sample time points were evenly distributed between the four groups). Fifty μl of blood was immediately transferred into 950 μl methanol (containing 0.1% FA and 2.5 mM AF), vortexed, and stored at −80 °C until drug analysis. The remaining portion of the blood samples were centrifuged at 2000 × g for 5 min for plasma collection, which was stored at −80 °C until drug analysis. […] Plasma samples were collected up to day 672 and CAB and M2CAB quantification were performed by LC-MS/MS.\nFor blood samples, 50 µl blood collected in 950 µl of methanol was vortexed, centrifuged at 16,000 × g for 10 min at 4 °C, and 50 µl supernatant was aspirated, mixed with 50 µl IS [20 ng/ml d3-dolutegravir (d3-DTG) and 40 ng/ml stearoylated darunavir (SDRV)] in 70% methanol (containing 0.1% FA and 2.5 mM AF). d3-DTG was used as the IS (final concentration = 10 ng/ml) for the quantification of CAB, and SDRV (final concentration = 20 ng/ml) was used as the IS for quantification of M2CAB. Ten µl of the sample was analyzed by LC-MS/MS for CAB and M2CAB. […]"}, "[2]": {"assay": "Metabolic stability in blood", "assay_type": "in vitro ADME, mouse, rat, rabbit, monkey, dog, human", "conditions": "for Stability in blood: 24 h", "experimental": "[…] The samples were then centrifuged at 16,000 × g for 10 min after which 10 µl of the supernatant was mixed with 80% methanol (containing 0.1% FA and 2.5 mM AF) containing an internal standard (IS) and analyzed by LC-MS/MS. For the time zero start time, a 100 µl of ice-cold blood was spiked with M2CAB and immediately 0.9 ml of methanol (containing 0.1% FA and 2.5 mM AF) was added. Heat-inactivated plasma was incubated at the same conditions and used as negative controls to differentiate chemical versus metabolic stability."}, "[3]": {"test_system": "human monocyte-derived macrophages (MDMs)", "assay": "Cellular uptake, retention and release in macrophages", "assay_type": "cell-based", "conditions": "for Percent taken up by MDMs: 8 h, 10 µM", "experimental": "Human peripheral blood monocytes were obtained by leukapheresis from HIV-1,2 and hepatitis B seronegative donors and purified by centrifugal elutriation. Monocytes were cultured for the first seven days in macrophage colony stimulating factor enriched media (MCSF, 1000 U/ml) to facilitate cell vitality and differentiation into macrophages[15],[29]. […] Cells were maintained in clear flat-bottom 12-well plates at 37 °C in a 5% CO2 incubator at a density of 1.0 × 10^6 cells per well. Half-culture media was replaced with fresh media every other day. After differentiation, MDM were utilized for CAB prodrug or drug nanoparticle uptake, retention and release. […] At days 1, 5, 10, 15, 20, and 30, adherent MDM were washed twice with PBS, scraped into PBS, and counted using an Invitrogen Countess Automated Cell Counter (Carlsbad, CA). Cell suspension was then centrifuged at 900 × g for 8 min at 4 °C. […] To quantify release kinetics, drug concentrations were measured in samples collected from the culture media from the same retention experiment using preloaded MDMs, at the same time when cells were harvested to quantify intracellular drug retention."}, "HIV-1": {"test_system": "HIV-1", "conditions": "no reference given; cited from earlier work"}, "[4]": {"conditions": "cited from earlier work"}, "[5]": {"parameters": "method as in PMID 30387005", "conditions": "in water; cited from earlier work"}, "[6]": {"conditions": "macaques; cited from earlier work"}, "SHIV": {"test_system": "SHIV", "parameters": "method as in PMID 24594934", "conditions": "NHP, cited from earlier work"}, "[7]": {"parameters": "method as in PMID 26340566, PMID 26049948", "conditions": "cited from earlier work"}, "CYP450": {"test_system": "CYP450", "parameters": "method as in PMID 26340566, PMID 26049948", "conditions": "cited from earlier work"}, "[8]": {"assay": "Chemical (pH) stability of unformulated M2CAB", "assay_type": "physicochemical", "conditions": "37 °C, 24 h, 1 μM", "experimental": "Next, we assessed the chemical stability of the solubilized form of M2CAB at a range of pHs [pH 1.0 (0.1 M HCl), pH 7.4 (PBS), pH 8.3 (heat-inactivated plasma) and pH 11.0 (0.1 M NaOH)]. […] At 24 h, percent M2CAB recovered was 87, 52, 5, and 2 at pH 1.0, pH 7.4, pH 8.3 and pH 11.0, respectively (Supplementary Fig. 3). Reductions in M2CAB prodrug concentrations paralleled native CAB formation, indicating the hydrolysis of the prodrug M2CAB into parent CAB.\nSupplementary Figure 3. M2CAB pH stability. Chemical stability profile of M2CAB at pH 1.0 (0.1 M HCl), pH 7.4 (PBS), pH 8.3 (heat inactivated plasma) and pH 11.0 (0.1 M NaOH) at 1 μM drug concentration. (a) Percent M2CAB remaining vs. time profile for M2CAB; (b) Percent CAB formation vs. time profile from M2CAB. Data are expressed as mean (N = 2 replicates per time point). Each experiment was repeated independently two times with equivalent results.\n(1 picture or pasted object on this page, not shown here)"}, "[9]": {"assay": "Metabolic stability in liver S9 fractions", "assay_type": "in vitro ADME, mouse, rat, rabbit, monkey, dog, human", "conditions": "six species, 2 h incubation, 1 µM", "experimental": "The metabolic stabilities of CAB and M2CAB were determined using mouse, rat, rabbit, dog, monkey, and human liver S9 fractions (XenoTech, LLC, Lenexa, KS, USA). Briefly, CAB and M2CAB were incubated at 1 µM in a 100 µl mixture containing S9 fractions at 1 mg/ml protein concentration, NADPH (1 mM), saccharolactone (5 mM), uridine 5′-diphospho-glucuronic acid (UDPGA) (1 mM), and 3′-phosphoadenosin-5′-phosphosulphate (PAPS) ([…]) in PBS (100 mM, pH 7.4) at 37 °C. For each time point (0, 30, and 120 min), reactions were quenched by adding 0.9 ml of methanol (containing 0.1% FA and 2.5 mM AF), followed by centrifugation at 15,000 × g for 10 min. Ten microliters of the supernatants were then analyzed by LC-MS/MS. Heat-inactivated S9 fractions were incubated at the same conditions and used as negative controls. Hydroxycoumarin (7-HC) metabolites including 7-HC-glucuronide and 7-HC-sulfate, and the testosterone metabolite 6β-hydroxytestosterone were used as positive controls for phase I and phase II metabolism."}, "[10]": {"assay": "Metabolic stability in rat tissue homogenates", "assay_type": "in vitro ADME", "experimental": "For metabolic stability in tissues, freshly collected rat liver, spleen, muscle, and lymph node tissues were homogenized in five-volumes of PBS (w/v). […] At different time points (0, 30 min, 2 h, and 6 h), 0.9 ml of methanol (containing 0.1% FA and 2.5 mM AF) was added to each sample and vortexed for 3 min. Samples were centrifuged at 16,000 × g for 10 min, 10 µl supernatant was mixed with 80% methanol (containing 0.1% FA and 2.5 mM AF) containing IS and analyzed by LC-MS/MS."}, "[11]": {"assay": "Stability in macrophage cell culture media and MDM-cell lysate", "assay_type": "in vitro ADME, human", "conditions": "M2CAB solution"}},
  "note": "Where two headings read alike, the source gives them in different places.",
  "data": [
    {"smiles": "C[C@H]1CO[C@@H]2Cn3cc(C(=O)NCc4ccc(F)cc4F)c(=O)c(O)c3C(=O)N12", "note": "[CAB, cabotegravir]", "values": [
      {"measurement": "Fold CAB blood concentration lower than plasma concentration", "setting": "[1]; all samples (mice and rats)", "result": "~2", "unit": "fold"},
      {"measurement": "Stability in blood", "setting": "[2]; all species, 1 µM, 37 °C", "result": "stable"},
      {"measurement": "Percent of CAB recovered", "setting": "[2]; blood, all six species, by 24 h", "result": "more than 90%"},
      {"measurement": "Percent taken up by MDMs", "setting": "[3]", "result": "≤ 0.1", "unit": "%"},
      {"measurement": "Intracellular CAB levels in MDMs", "setting": "[3]; after 8 h drug loading at 10 µM", "result": "below or at the limit of detection within hours"},
      {"measurement": "Protein-adjusted 90% inhibitory concentration (PA-IC90)", "setting": "HIV-1", "result": 0.166, "unit": "µg/mL"},
      {"measurement": "Oral bioavailability", "setting": "[4]", "result": "near-complete"},
      {"measurement": "Plasma half-life", "setting": "[4]", "result": "30 to 40", "unit": "h"},
      {"measurement": "Eliminated unchanged in feces", "setting": "[4]; humans", "result": "up to 50%"},
      {"measurement": "Glucuronide metabolites in urine", "setting": "[4]; humans", "result": 27, "unit": "%"},
      {"measurement": "Terminal phase half-life", "setting": "[4]; humans", "result": "504 to 1200", "unit": "h"},
      {"measurement": "Unidentified metabolites in feces", "setting": "[4]; humans", "result": 10, "unit": "%"},
      {"measurement": "tmax (oral absorption)", "setting": "[4]; oral", "result": "1.5 to 2", "unit": "h"},
      {"measurement": "Aqueous solubility", "setting": "[5]", "result": 15, "unit": "µg/mL"},
      {"measurement": "Terminal phase half-life", "setting": "[6]", "result": "72 to 288", "unit": "h"},
      {"measurement": "Protection against intrarectal SHIV challenge", "setting": "SHIV; plasma CAB concentrations >3×PA-IC90", "result": 100, "unit": "%"},
      {"measurement": "Protection against intrarectal SHIV challenge", "setting": "SHIV; plasma CAB concentrations ≥1×PA-IC90", "result": 97, "unit": "%"},
      {"measurement": "Membrane permeability", "setting": "[7]", "result": "high"},
      {"measurement": "Affinity for CYP450", "setting": "CYP450", "result": "low"}
    ]},
    {"smiles": "CCCCCCCCCCCCCCCCCC(=O)Oc1c2n(cc(C(=O)NCc3ccc(F)cc3F)c1=O)C[C@H]1OC[C@H](C)N1C2=O", "note": "[M2CAB]", "values": [
      {"measurement": "Blood concentration of the prodrug as percent of CAB", "setting": "[1]; mice and rats, after NM2CAB", "result": "< 1", "unit": "%"},
      {"measurement": "Percent M2CAB recovered", "setting": "[8]; pH 1.0 (0.1 M HCl)", "result": 87, "unit": "%"},
      {"measurement": "Percent M2CAB recovered", "setting": "[8]; pH 7.4 (PBS)", "result": 52, "unit": "%"},
      {"measurement": "Percent M2CAB recovered", "setting": "[8]; pH 8.3 (heat-inactivated plasma)", "result": 5, "unit": "%"},
      {"measurement": "Percent M2CAB recovered", "setting": "[8]; pH 11.0 (0.1 M NaOH)", "result": 2, "unit": "%"},
      {"measurement": "Stability in blood", "setting": "[2]; all species, 1 µM, 37 °C", "result": "unstable"},
      {"measurement": "Percent of M2CAB hydrolyzed", "setting": "[2]; blood of dog, monkey, mouse, rat, rabbit, human, after 6 h, 1 µM, 37 °C", "result": "Greater than 80%"},
      {"measurement": "Time within which M2CAB was hydrolyzed into the parent CAB", "setting": "[2]; blood, all species", "result": "≤ 6", "unit": "h"},
      {"measurement": "Stability in heat-inactivated plasma", "setting": "[2]; control, 1 µM, 37 °C", "result": "unstable"},
      {"measurement": "Percent of M2CAB lost", "setting": "[9]", "result": "< 25", "unit": "%"},
      {"measurement": "Stability in heat-inactivated liver homogenate", "setting": "[10]; control", "result": "unstable"},
      {"measurement": "Percent of M2CAB remaining/recovered", "setting": "[10]; rat tissue homogenates, after 6 h incubation, 1 µM", "result": "50–80%"},
      {"measurement": "Percent taken up by MDMs", "setting": "[3]", "result": "up to 30%"},
      {"measurement": "Percent released into the media (recovered as CAB)", "setting": "[3]; MDMs, within days", "result": "< 95", "unit": "%"},
      {"measurement": "Percent of intracellular drug retained by MDMs", "setting": "[3]; one month after 8 h loading at 10 µM", "result": 4, "unit": "%"},
      {"measurement": "Time to complete hydrolysis into CAB in cell lysates", "setting": "[11]", "result": "≤ 7", "unit": "days"},
      {"measurement": "Time to complete hydrolysis into CAB in media", "setting": "[11]", "result": "≤ 3", "unit": "days"}
    ]}
  ]
}
